According to ChEMBL document CHEMBL1154822, “Synthesis and antiproliferative activity of 7-azaindirubin-3'-oxime, a 7-aza isostere of the natural indirubin pharmacophore” (J Nat Prod, 2009):

Key:
Type in all cases: functional
NCI/ADR-RES [1] = assay: Cytotoxicity against human NCI/ADR-RES cells assessed as cell growth at 10 uM after 1 to 11 days by MTT assay; conditions: read-out: Activity
UO-31 = assay: Cytotoxicity against human UO31 cells assessed as cell growth at 1 uM after 1 to 11 days by MTT assay; conditions: read-out: Activity
NCI-H522 = assay: Cytotoxicity against human NCI-H522 cells assessed as cell growth at 1 mM after 1 to 11 days by MTT assay; conditions: read-out: Activity
T47D [2] = assay: Cytotoxicity against human T47D cells assessed as cell growth at 10 uM after 1 to 11 days by MTT assay; conditions: read-out: Activity
SF-268 = assay: Cytotoxicity against human SF268 cells assessed as cell growth at 0.1 uM after 1 to 11 days by MTT assay; conditions: read-out: Activity
U-251 = assay: Cytotoxicity against human U251 cells assessed as cell growth at 100 uM after 1 to 11 days by MTT assay; conditions: read-out: Activity
OVCAR-8 [3] = assay: Cytotoxicity against human OVCAR8 cells assessed as cell growth at 10 uM after 1 to 11 days by MTT assay; conditions: read-out: Activity
Malme-3M = assay: Cytotoxicity against human MALME-3M cells assessed as cell growth at 0.1 uM after 1 to 11 days by MTT assay; conditions: read-out: Activity
SN12C = assay: Cytotoxicity against human SN12C cells assessed as cell growth at 10 uM after 1 to 11 days by MTT assay; conditions: read-out: Activity
T47D [4] = assay: Cytotoxicity against human T47D cells assessed as cell growth at 0.1 uM after 1 to 11 days by MTT assay; conditions: read-out: Activity
A549 [5] = assay: Cytotoxicity against human A549 cells assessed as cell growth at 1 uM after 1 to 11 days by MTT assay; conditions: read-out: Activity
NCI/ADR-RES [6] = assay: Cytotoxicity against human NCI/ADR-RES cells assessed as cell growth at 1 mM after 1 to 11 days by MTT assay; conditions: read-out: Activity
T47D [7] = assay: Cytotoxicity against human T47D cells assessed as cell growth at 1 mM after 1 to 11 days by MTT assay; conditions: read-out: Activity
PC-3 = assay: Cytotoxicity against human PC3 cells assessed as cell growth at 10 uM after 1 to 11 days by MTT assay; conditions: read-out: Activity
MDA-MB-468 = assay: Cytotoxicity against human MDA-MB-468 cells assessed as cell growth at 1 uM after 1 to 11 days by MTT assay; conditions: read-out: Activity
HCT-15 = assay: Cytotoxicity against human HCT15 cells assessed as cell growth at 0.1 uM after 1 to 11 days by MTT assay; conditions: read-out: Activity
NCI-H460 = assay: Cytotoxicity against human NCI-H460 cells after 1 to 11 days by MTT assay
BT-549 = assay: Cytotoxicity against human BT549 cells assessed as cell growth at 10 uM after 1 to 11 days by MTT assay; conditions: read-out: Activity
NCI-H322M = assay: Cytotoxicity against human NCI-H322M cells assessed as cell growth at 1 uM after 1 to 11 days by MTT assay; conditions: read-out: Activity
RPMI-8226 = assay: Cytotoxicity against human RPMI8226 cells assessed as cell growth at 1 uM after 1 to 11 days by MTT assay; conditions: read-out: Activity
CCRF-CEM = assay: Cytotoxicity against human CCRF-CEM cells assessed as cell growth at 100 uM after 1 to 11 days by MTT assay; conditions: read-out: Activity
SK-OV-3 = assay: Cytotoxicity against human SKOV3 cells assessed as cell growth at 10 uM after 1 to 11 days by MTT assay; conditions: read-out: Activity
MOLT-4 = assay: Cytotoxicity against human MOLT4 cells after 1 to 11 days by MTT assay
OVCAR-8 [8] = assay: Cytotoxicity against human OVCAR8 cells after 1 to 11 days by MTT assay
OVCAR-4 = assay: Cytotoxicity against human OVCAR4 cells assessed as cell growth at 0.1 uM after 1 to 11 days by MTT assay; conditions: read-out: Activity
SR = assay: Cytotoxicity against human SR cells after 1 to 11 days by MTT assay
NCI/ADR-RES [9] = assay: Cytotoxicity against human NCI/ADR-RES cells assessed as cell growth at 1 uM after 1 to 11 days by MTT assay; conditions: read-out: Activity
M14 = assay: Cytotoxicity against human M14 cells assessed as cell growth at 1 mM after 1 to 11 days by MTT assay; conditions: read-out: Activity
SK-MEL-5 = assay: Cytotoxicity against human SK-MEL-5 cells assessed as cell growth at 10 uM after 1 to 11 days by MTT assay; conditions: read-out: Activity
786-0 [10] = assay: Cytotoxicity against human 786-0 cells assessed as cell growth at 10 uM after 1 to 11 days by MTT assay; conditions: read-out: Activity
SK-MEL-28 [11] = assay: Cytotoxicity against human SK-MEL-28 cells assessed as cell growth at 1 mM after 1 to 11 days by MTT assay; conditions: read-out: Activity
MDA-MB-231 [12] = assay: Cytotoxicity against human MDA-MB-231 cells assessed as cell growth at 0.1 uM after 1 to 11 days by MTT assay; conditions: read-out: Activity
DU-145 [13] = assay: Cytotoxicity against human DU145 cells assessed as cell growth at 1 uM after 1 to 11 days by MTT assay; conditions: read-out: Activity
HCC 2998 = assay: Cytotoxicity against human HCC2998 cells after 1 to 11 days by MTT assay
SW-620 = assay: Cytotoxicity against human SW620 cells assessed as cell growth at 1 mM after 1 to 11 days by MTT assay; conditions: read-out: Activity
OVCAR-5 = assay: Cytotoxicity against human OVCAR5 cells assessed as cell growth at 10 uM after 1 to 11 days by MTT assay; conditions: read-out: Activity
DU-145 [14] = assay: Cytotoxicity against human DU145 cells assessed as cell growth at 1 mM after 1 to 11 days by MTT assay; conditions: read-out: Activity
SK-MEL-28 [15] = assay: Cytotoxicity against human SK-MEL-28 cells assessed as cell growth at 0.1 uM after 1 to 11 days by MTT assay; conditions: read-out: Activity
NCI-H23 = assay: Cytotoxicity against human NCI-H23 cells assessed as cell growth at 100 uM after 1 to 11 days by MTT assay; conditions: read-out: Activity
K562 = assay: Cytotoxicity against human K562 cells assessed as cell growth at 100 uM after 1 to 11 days by MTT assay; conditions: read-out: Activity
786-0 [16] = assay: Cytotoxicity against human 786-0 cells assessed as cell growth at 1 mM after 1 to 11 days by MTT assay; conditions: read-out: Activity
MDA-MB-231 [17] = assay: Cytotoxicity against human MDA-MB-231 cells assessed as cell growth at 1 mM after 1 to 11 days by MTT assay; conditions: read-out: Activity
HCT-116 = assay: Cytotoxicity against human HCT116 cells assessed as cell growth at 0.1 uM after 1 to 11 days by MTT assay; conditions: read-out: Activity
A549 [18] = assay: Cytotoxicity against human A549 cells after 1 to 11 days by MTT assay
[19] = read-out: LC50 (the source's name)

**Q.** For `O=C1Nc2ncccc2/C1=C1/Nc2ccccc2/C1=N\O`, which growth at 10 µM (NCI/ADR-RES [1]) is on record?
**A.** 99%

**Q.** What about the growth at 1 µM (UO-31) of the same compound?
**A.** 80%

**Q.** What about the growth at 1000 µM (NCI-H522) of the same compound?
**A.** 50%

**Q.** What about the growth at 10 µM (T47D [2]) of the same compound?
**A.** 65%

**Q.** And the growth at 0.1 µM (SF-268)?
**A.** 100%

**Q.** And the growth at 100 µM (U-251)?
**A.** 55%

**Q.** What about the growth at 10 µM (OVCAR-8 [3]) of the same compound?
**A.** 84%

**Q.** What about the growth at 0.1 µM (Malme-3M) of the same compound?
**A.** 94%

**Q.** What about the growth at 10 µM (SN12C) of the same compound?
**A.** 81%

**Q.** What about the growth at 0.1 µM (T47D [4]) of the same compound?
**A.** 100%

**Q.** What about the growth at 1 µM (A549 [5]) of the same compound?
**A.** 95%

**Q.** And the growth at 1000 µM (NCI/ADR-RES [6])?
**A.** 55%

**Q.** And the growth at 1000 µM (T47D [7])?
**A.** 21%

**Q.** And the growth at 10 µM (PC-3)?
**A.** 82%

**Q.** What about the growth at 1 µM (MDA-MB-468) of the same compound?
**A.** 75%

**Q.** What about the growth at 0.1 µM (HCT-15) of the same compound?
**A.** 95%

**Q.** And the GI50 (NCI-H460)?
**A.** 7.02 µM

**Q.** What about the TGI (NCI-H460) of the same compound?
**A.** > 100 µM

**Q.** And the CC50 (NCI-H460; [19])?
**A.** > 100 µM

**Q.** And the growth at 10 µM (BT-549)?
**A.** 69%

**Q.** What about the growth at 1 µM (NCI-H322M) of the same compound?
**A.** 82%

**Q.** And the growth at 1 µM (RPMI-8226)?
**A.** 80%

**Q.** What about the growth at 100 µM (CCRF-CEM) of the same compound?
**A.** 37%

**Q.** And the growth at 10 µM (SK-OV-3)?
**A.** 69%

**Q.** And the GI50 (MOLT-4)?
**A.** 2.99 µM

**Q.** What about the TGI (MOLT-4) of the same compound?
**A.** > 100 µM

**Q.** What about the CC50 (MOLT-4; [19]) of the same compound?
**A.** > 100 µM

**Q.** What about the GI50 (OVCAR-8 [8]) of the same compound?
**A.** > 100 µM

**Q.** What about the TGI (OVCAR-8 [8]) of the same compound?
**A.** > 100 µM

**Q.** And the CC50 (OVCAR-8 [8]; [19])?
**A.** > 100 µM

**Q.** What about the growth at 0.1 µM (OVCAR-4) of the same compound?
**A.** 94%

**Q.** What about the GI50 (SR) of the same compound?
**A.** 6.65 µM

**Q.** What about the TGI (SR) of the same compound?
**A.** > 100 µM

**Q.** And the CC50 (SR; [19])?
**A.** > 100 µM

**Q.** And the growth at 1 µM (NCI/ADR-RES [9])?
**A.** 100%

**Q.** What about the growth at 1000 µM (M14) of the same compound?
**A.** 21%

**Q.** What about the growth at 10 µM (SK-MEL-5) of the same compound?
**A.** 94%

**Q.** What about the growth at 10 µM (786-0 [10]) of the same compound?
**A.** 114%

**Q.** And the growth at 1000 µM (SK-MEL-28 [11])?
**A.** 47%

**Q.** What about the growth at 0.1 µM (MDA-MB-231 [12]) of the same compound?
**A.** 99%

**Q.** And the growth at 1 µM (DU-145 [13])?
**A.** 102%

**Q.** And the GI50 (HCC 2998)?
**A.** 5.96 µM

**Q.** And the TGI (HCC 2998)?
**A.** > 100 µM

**Q.** What about the CC50 (HCC 2998; [19]) of the same compound?
**A.** > 100 µM

**Q.** And the growth at 1000 µM (SW-620)?
**A.** 39%

**Q.** And the growth at 10 µM (OVCAR-5)?
**A.** 94%

**Q.** What about the growth at 1000 µM (DU-145 [14]) of the same compound?
**A.** 35%

**Q.** What about the growth at 0.1 µM (SK-MEL-28 [15]) of the same compound?
**A.** 88%

**Q.** And the growth at 100 µM (NCI-H23)?
**A.** 55%

**Q.** And the growth at 100 µM (K562)?
**A.** 39%

**Q.** And the growth at 1000 µM (786-0 [16])?
**A.** 39%

**Q.** What about the growth at 1000 µM (MDA-MB-231 [17]) of the same compound?
**A.** 2%

**Q.** And the growth at 0.1 µM (HCT-116)?
**A.** 109%

**Q.** And the GI50 (A549 [18])?
**A.** 3.5 µM

**Q.** And the TGI (A549 [18])?
**A.** > 100 µM

**Q.** And the CC50 (A549 [18]; [19])?
**A.** > 100 µM
